{"source": "patent US7109193B2", "about": "“Tricyclic diazepines tocolytic oxytocin receptor antagonists” (Wyeth, priority 2001, dated 2006)", "target": "T1, human oxytocin receptor (Homo sapiens, UniProt P30559)", "T1 construct": "host or cells: CHO cells (pcDNA3.1 vector)", "T1 sequence (P30559 1-389)": "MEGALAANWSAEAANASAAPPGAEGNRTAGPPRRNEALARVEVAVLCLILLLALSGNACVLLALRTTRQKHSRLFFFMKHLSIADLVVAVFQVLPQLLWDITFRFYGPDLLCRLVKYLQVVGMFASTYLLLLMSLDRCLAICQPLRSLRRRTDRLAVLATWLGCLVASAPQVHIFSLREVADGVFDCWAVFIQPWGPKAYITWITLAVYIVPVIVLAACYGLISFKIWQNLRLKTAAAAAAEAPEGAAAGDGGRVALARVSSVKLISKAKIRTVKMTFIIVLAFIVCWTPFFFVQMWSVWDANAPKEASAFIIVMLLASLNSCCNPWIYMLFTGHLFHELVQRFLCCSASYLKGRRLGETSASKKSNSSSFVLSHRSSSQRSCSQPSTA", "experiment": "Oxytocin binding in Chinese Hamster Ovary cell membranes expressing human oxytocin receptors", "settings": "100 nM, CHO cell membranes, [3H]oxytocin, values without parentheses; for inhibition at 0.1 µM: read-out: OT % inhibition @ 100% nM", "data": [{"smiles": "O=C(c1ccc2n1Cc1ccccc1N(C(=O)c1ccc(-c3cccc4ccccc34)cc1Cl)C2)N1CCC(N2CCCC2)CC1", "note": "[Example 147, {10-[2-Chloro-4-(1-naphthyl)benzoyl]-10,11-dihydro-5H-pyrrolo[2,1-c][1,4]benzodiazepin-3-yl}[4-(1-pyrrolidinyl)-1-piperidinyl]methanone]", "values": [{"measurement": "inhibition at 0.1 µM", "result": 33, "unit": "%"}]}, {"smiles": "Cc1cc(C(=O)N2Cc3ccc(C(=O)NCCCN(C)C)n3Cc3ccccc32)ccc1-c1ccccc1C(F)(F)F", "note": "[Example 84, N-[3-(Dimethylamino)propyl]-10-{[2-methyl-2′-(trifluoromethyl)[1,1′-biphenyl]-4-yl]carbonyl}-10,11-dihydro-5H-pyrrolo[2,1-c][1 .4]benzodiazepine-3-carboxamide]", "values": [{"measurement": "OT % inhibition @ 100% nM", "result": 48, "unit": "%"}]}, {"smiles": "Cc1cc(C(=O)N2Cc3ccc(C(=O)N4CCC(N5CCCCC5)CC4)n3Cc3ccccc32)ccc1-c1ccccc1C(F)(F)F", "note": "[Example 122, {10-[(2-Methyl-2′-(trifluoromethyl) -[1,1′-biphenyl]-4-yl)carbonyl]-10,11-dihydro-5H -pyrrolo[2,1-c][1,4]benzodiazepin-3-yl}[4-(1-piperidinyl)-1-piperidinyl]methanone]", "values": [{"measurement": "inhibition at 0.1 µM", "result": 77, "unit": "%"}]}, {"smiles": "COc1cccc(-c2ccc(C(=O)N3Cc4ccc(C(=O)N(C)CCCN(C)C)n4Cc4ccccc43)cc2OC)c1", "note": "[Example 108, 10-[(2,3′-Dimethoxy[1,1′-biphenyl]-4-yl)carbonyl]-N-[3-(dimethylamino)propyl]-N-methyl-10,11-dihydro-5H-pyrrolo[2,1-c][1,4]benzodiazepine-3-carboxamide]", "values": [{"measurement": "inhibition at 0.1 µM", "result": 96, "unit": "%"}]}, {"smiles": "COc1cccc(-c2cc(OC)c(C(=O)N3Cc4ccc(C(=O)N5CCN(CCN6CCOCC6)CC5)n4Cc4ccccc43)cc2Cl)c1", "note": "[Example 212, {10-[(6-Chloro-3,3′-dimethoxy[1,1′-biphenyl]-4-yl)carbonyl]-10,11-dihydro-5H-pyrrolo[2,1-c][1,4]benzodiazepin-3-yl}{4-[2-(4-morpholinyl)ethyl]-1-piperazinyi}methanone]", "values": [{"measurement": "OT % inhibition @ 100% nM", "result": 95, "unit": "%"}]}, {"smiles": "Cc1ccccc1-c1ccc(C(=O)N2Cc3ccc(C(=O)N4CCC[C@H]4CN4CCCC4)n3Cc3ccccc32)cc1", "note": "[Example 264, {10-[(2′-Methyl[1,1′-biphenyl]-4-yl)carbonyl]-10,11-dihydro-5H-pyrrolo[2,1-c][1,4]benzodiazepin-3-yl}[(2S)-2-(1-pyrrolidinylmethyl)pyrrolidinyl]methanone]", "values": [{"measurement": "OT % inhibition @ 100% nM", "result": 94, "unit": "%"}]}, {"smiles": "COc1cccc(-c2cc(OC)c(C(=O)N3Cc4ccc(C(=O)NCCCn5ccnc5)n4Cc4ccccc43)cc2Cl)c1", "note": "[Example 130, 10-[(6-Chloro-3,3′-dimethoxy[1,1′-biphenyl]-4-yl)carbonyl]-N-[3-(1H-imidazol-1-yl)propyl]-10,11-dihydro-5H-pyrrolo[2,1-c][1,4]benzodiazepine-3-carboxamide]", "values": [{"measurement": "inhibition at 0.1 µM", "result": 46, "unit": "%"}]}, {"smiles": "COc1ccccc1-c1ccc(C(=O)N2Cc3ccc(C(=O)N4CC[C@@H](N(C)C)C4)n3Cc3ccccc32)cc1", "note": "[Example 279, [(3R)-3-(Dimethylamino)pyrrolidinyl]{10-[(2′-methoxy[1,1′-biphenyl]-4-yl)carbonyl]-10,11-dihydro-5H-pyrrolo[2,1-c][1,4]benzodiazepin-3-yl}methanone]", "values": [{"measurement": "OT % inhibition @ 100% nM", "result": 100, "unit": "%"}]}, {"smiles": "COc1cccc(-c2cc(OC)c(C(=O)N3Cc4ccc(C(=O)N5CC[C@@H](N(C)C)C5)n4Cc4ccccc43)cc2Cl)c1", "note": "[Example 275, {10-[(6-Chloro-3,3′-dimethoxy[1,1′-biphenyl]-4-yl)carbonyl]-10,11-dihydro-5H-pyrrolo[2,1-c][1,4]benzodiazepin-3-yl}[(3R)-3-(dimethylamino)pyrrolidinyl]methanone]", "values": [{"measurement": "OT % inhibition @ 100% nM", "result": 89, "unit": "%"}]}]}
